Assay results from PubChem BioAssay AID1963446 (Molecular Pharmacology Branch, DTP, NCI, 2024).
Where “and” joins values, the source holds several entries; their conditions need not be identical. Equal values may be shown once.

Tested on: 993429-296-R-J1-PDC complex spheroid growth, percent test/control
Experiment: Anticancer human tumor 993429-296-R-J1-PDC patient-derived uterine sarcoma cell line growth inhibition [Asc]
Conditions: for viability, T/C: stronger effect = lower value
Method: Multicellular complex tumor spheroid response to apoptosis pathway targeting inhibitors Alrizomadlin, Pelcitoclax, and Dasminapant in combination with a variety of drugs and investigational agents in selected tumor cell lines
The MDM2 inhibitor alrizomadlin, the Bcl-2/Bcl-xL inhibitor pelcitoclax, and the IAPs inhibitor dasminapant were evaluated both individually and in combination with standard of care and investigational anticancer small molecules within a complex spheroid model of solid tumors. . Complex spheroids include a stromal component modeled by human endothelial cells (HUVEC) and fibroblasts modeled by human mesenchymal stem cells (MSCs). The concentration ranges selected for each drug and investigational agent were based upon clinically achievable concentrations if the clinical Cmax of the agent was known.
Compounds. The drugs and investigational agents: alrizomadlin (APG-115; NSC831270), pelcitoclax (APG-1252; NSC835773), dasminapant (APG-1387;NSC834197), TAK-243 (NSC785004), copanlisib (NSC809693), olaparib (NSC753686), talazoparib (NSC767125), cobimetinib (NSC 768068), eltanexor (KPT-8602, NSC 794443), abemaciclib (NSC 768073), sotorasib (NSC818433), adagrasib (NSC 831453), MRTX-1133 (NSC 836407), Iadademestat (ORY1001, NSC 806812), and RMC-4630 (NSC839698), were obtained from the NCI Developmental Therapeutics Program Chemical Repository. The FDA-approved anticancer drug set is available from the Developmental Therapeutics Program at https://dtp.cancer.gov/organization/dscb/obtaining/available plates.htm. […] The stock solutions were prepared in dimethyl sulfoxide (DMSO, Sigma-Aldrich, St. Louis, MO, cat. D2650) at 800-fold the tested concentration and stored at -70 degrees C prior to their use. All drugs and investigational agents were tested over a range starting from a high concentration at or near the clinical Cmax and decreasing in half-log increments. If the clinical Cmax for an agent had not been determined, the highest concentration tested was 10 microM.
The patient-derived cancer (PDC) cell lines include five colon adenocarcinomas: 186277-243-T-J2-PDC, 616215-338-R-J1-PDC, 439559-082-T-J2-PDC, 463943-066-T-J2-PDC, and 519858-162-T-J1-PDC; three pancreatic carcinomas: 323965-272-R-J2-PDC, 521955-158-R6-J3-PDC, and 521955-158-R2-J5-PDC; two uterine sarcomas: 327498-152-R-J2-PDC and 993429-296-R-J1-PDC; two rhabdomyosarcomas: 755483-174-R-J1-PDC and 772245-204-R-J1-PDC; two soft tissue sarcomas: 126254-015-R-J1-PDC and 494315-158-R-J1-PDC; two malignant fibrous histiocytomas: 317291-083-R-J1-PDC and 596521-263-R-J1-PDC; two breast carcinomas: 171881-019-R-J1-PDC and 885512-296-R-J2-PDC; and one ovarian carcinoma: 6556581-035-R-J-PDC were obtained from the NCI PDMR, (https://pdmr.cancer.gov). The established cell lines HSSY-2 synovial sarcoma (RRID:CVCL 8719), SYO-1 synovial sarcoma (RRID:CVCL_7146), MPNST malignant peripheral neural sheath tumor were obtained from the Sloan Kettering Institute. The following established cell lines were purchased from the American Type Culture Collection (ATCC, Manassas, VA), Sor the received from the NCI repository:, PANC-1 pancreatic carcinoma (CRL-1469, RRID:CVCL_0480), OVCAR-5 ovarian carcinoma (RRID:CVCL_1628), OVCAR-8 ovarian carcinoma (RRID:CVCL_1629), , MCF-7 breast carcinoma (CRL-12584, RRID:CVCL_0031), MDA-MB-231 breast carcinoma (CRL-12532, RRID:CVCL_0062), NCI-H1876 small cell lung carcinoma (CRL-5902, RRID:CVCL_1503), NCI-H510A small cell lung carcinoma (HTB-184, RRID:CVCL_1565), NCI-H1417 (CRL-5869, RRID:CVCL_1469), and NCI-H196 small cell lung carcinoma (CRL-5823, RRID:CVCL_1509). Dr. Peter Houghton (Greehey Children's Cancer Research Institute, University of Texas Health Science Center, San Antonio, TX) provided Rh-18 rhabdomyosarcoma (RRID:CVCL_1659). Pooled donor human umbilical vein endothelial cells (HUVEC, Lonza, cat. CC-2519) and human mesenchymal stem cells (hMSC, Lonza, cat. PT-2501) were purchased from Lonza (Walkersville, MD).
Cell Culture. […]
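Further: spheroids exposed to compounds for seven days.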

Question: What does the source list for `NC(=O)C(=Cn1cnc(-c2cc(C(F)(F)F)cc(C(F)(F)F)c2)n1)c1cncnc1` + CCN1C(C(=O)NC23CCC(C(=O)O)(CC2)CC3)C(c2cccc(Cl)c2F)C2(C(=O)Nc3cc(Cl)ccc32)C12CCCCC2?
Answer: IC50 (curve of first compound, second compound 0.03 µM): 0.0186 µM; IC50 (curve of first compound, second compound 0.0949 µM): 0.0155 µM; IC50 (curve of first compound, second compound 0.3 µM): 0.014 µM; IC50 (curve of first compound, second compound 0.949 µM): 0.0203 µM; IC50 (curve of first compound, second compound 3 µM): 0.0133 µM; viability, T/C (second compound 0.03 µM, first compound 0.000949 µM): 98%; viability, T/C (second compound 0.03 µM, first compound 0.003 µM): 97.9%; viability, T/C (second compound 0.03 µM, first compound 0.00949 µM): 71%; viability, T/C (second compound 0.03 µM, first compound 0.03 µM): 34%; viability, T/C (second compound 0.03 µM, first compound 0.0949 µM): 17.8%; viability, T/C (second compound 0.03 µM, first compound 0.3 µM): 9.36%; viability, T/C (second compound 0.0949 µM, first compound 0.000949 µM): 95.3%; viability, T/C (second compound 0.0949 µM, first compound 0.003 µM): 87%; viability, T/C (second compound 0.0949 µM, first compound 0.00949 µM): 63.4%; viability, T/C (second compound 0.0949 µM, first compound 0.03 µM): 31.9%; viability, T/C (second compound 0.0949 µM, first compound 0.0949 µM): 14.9%; viability, T/C (second compound 0.0949 µM, first compound 0.3 µM): 8.83%; viability, T/C (second compound 0.3 µM, first compound 0.000949 µM): 89.3%; viability, T/C (second compound 0.3 µM, first compound 0.003 µM): 85.6%; viability, T/C (second compound 0.3 µM, first compound 0.00949 µM): 55.4%; viability, T/C (second compound 0.3 µM, first compound 0.03 µM): 33.4%; viability, T/C (second compound 0.3 µM, first compound 0.0949 µM): 19.7%; viability, T/C (second compound 0.3 µM, first compound 0.3 µM): 9.08%; viability, T/C (second compound 0.949 µM, first compound 0.000949 µM): 83%; viability, T/C (second compound 0.949 µM, first compound 0.003 µM): 90%; viability, T/C (second compound 0.949 µM, first compound 0.00949 µM): 83.3%; viability, T/C (second compound 0.949 µM, first compound 0.03 µM): 33%; viability, T/C (second compound 0.949 µM, first compound 0.0949 µM): 14%; viability, T/C (second compound 0.949 µM, first compound 0.3 µM): 7.67%; viability, T/C (second compound 3 µM, first compound 0.000949 µM): 81.7%; viability, T/C (second compound 3 µM, first compound 0.003 µM): 87.5%; viability, T/C (second compound 3 µM, first compound 0.00949 µM): 55.4%; viability, T/C (second compound 3 µM, first compound 0.03 µM): 29.8%; viability, T/C (second compound 3 µM, first compound 0.0949 µM): 13%; viability, T/C (second compound 3 µM, first compound 0.3 µM): 8.21%

Question: With `NC(=O)C(=Cn1cnc(-c2cc(C(F)(F)F)cc(C(F)(F)F)c2)n1)c1cncnc1` + CNC(C)C(=O)NC1CN(S(=O)(=O)c2cccc(S(=O)(=O)N3CCC4CCC(C(=O)NC(c5ccccc5)c5ccccc5)N4C(=O)C(NC(=O)C(C)NC)C3)c2)CCC2CCC(C(=O)NC(c3ccccc3)c3ccccc3)N2C1=O as the molecule, how does the IC50 (curve of first compound, second compound 0.01 µM) read?
Answer: 0.0128 µM

Question: What about the IC50 (curve of first compound, second compound 0.0316 µM) of the same molecule?
Answer: 0.0111 µM

Question: What about the IC50 (curve of first compound, second compound 0.1 µM) of the same molecule?
Answer: 0.00896 µM

Question: And the IC50 (curve of first compound, second compound 0.316 µM)?
Answer: 0.00599 µM

Question: And the IC50 (curve of first compound, second compound 1 µM)?
Answer: 0.0081 µM

Question: What about the viability, T/C (second compound 0.01 µM, first compound 0.000949 µM) of the same molecule?
Answer: 62.7%

Question: What about the viability, T/C (second compound 0.01 µM, first compound 0.003 µM) of the same molecule?
Answer: 65.6%

Question: And the viability, T/C (second compound 0.01 µM, first compound 0.00949 µM)?
Answer: 55.4%

Question: What about the viability, T/C (second compound 0.01 µM, first compound 0.03 µM) of the same molecule?
Answer: 33.1%

Question: What about the viability, T/C (second compound 0.01 µM, first compound 0.0949 µM) of the same molecule?
Answer: 14.9%

Question: What about the viability, T/C (second compound 0.01 µM, first compound 0.3 µM) of the same molecule?
Answer: 8.47%

Question: And the viability, T/C (second compound 0.0316 µM, first compound 0.000949 µM)?
Answer: 63.6%

Question: What about the viability, T/C (second compound 0.0316 µM, first compound 0.003 µM) of the same molecule?
Answer: 63.1%

Question: And the viability, T/C (second compound 0.0316 µM, first compound 0.00949 µM)?
Answer: 52.1%

Question: What about the viability, T/C (second compound 0.0316 µM, first compound 0.03 µM) of the same molecule?
Answer: 33%

Question: What about the viability, T/C (second compound 0.0316 µM, first compound 0.0949 µM) of the same molecule?
Answer: 14.9%

Question: What about the viability, T/C (second compound 0.0316 µM, first compound 0.3 µM) of the same molecule?
Answer: 8%

Question: And the viability, T/C (second compound 0.1 µM, first compound 0.000949 µM)?
Answer: 58.3%

Question: And the viability, T/C (second compound 0.1 µM, first compound 0.003 µM)?
Answer: 61.1%

Question: And the viability, T/C (second compound 0.1 µM, first compound 0.00949 µM)?
Answer: 48.1%

Question: And the viability, T/C (second compound 0.1 µM, first compound 0.03 µM)?
Answer: 33.3%

Question: What about the viability, T/C (second compound 0.1 µM, first compound 0.0949 µM) of the same molecule?
Answer: 16%

Question: And the viability, T/C (second compound 0.1 µM, first compound 0.3 µM)?
Answer: 4.45%

Question: And the viability, T/C (second compound 0.316 µM, first compound 0.000949 µM)?
Answer: 57.6%

Question: And the viability, T/C (second compound 0.316 µM, first compound 0.003 µM)?
Answer: 60%

Question: What about the viability, T/C (second compound 0.316 µM, first compound 0.00949 µM) of the same molecule?
Answer: 43.7%

Question: And the viability, T/C (second compound 0.316 µM, first compound 0.03 µM)?
Answer: 29%

Question: And the viability, T/C (second compound 0.316 µM, first compound 0.0949 µM)?
Answer: 15.8%

Question: And the viability, T/C (second compound 0.316 µM, first compound 0.3 µM)?
Answer: 8.88%

Question: And the viability, T/C (second compound 1 µM, first compound 0.000949 µM)?
Answer: 52%

Question: And the viability, T/C (second compound 1 µM, first compound 0.003 µM)?
Answer: 62.6%

Question: And the viability, T/C (second compound 1 µM, first compound 0.00949 µM)?
Answer: 47.8%

Question: What about the viability, T/C (second compound 1 µM, first compound 0.03 µM) of the same molecule?
Answer: 28.5%

Question: And the viability, T/C (second compound 1 µM, first compound 0.0949 µM)?
Answer: 14.1%

Question: What about the viability, T/C (second compound 1 µM, first compound 0.3 µM) of the same molecule?
Answer: 5.77%

Question: `C=C(F)C(=O)N1CCN(c2nc(OCC3CCCN3C)nc3c2CCN(c2cccc4cccc(Cl)c24)C3)CC1CC#N` (configuration not stated) was tested. Which viability, T/C (compound 0.0316 µM) did it give?
Answer: 85.9% and 98.6% and 98.2%

Question: What about the viability, T/C (compound 0.1 µM) of the same molecule?
Answer: 93.5% and 103% and 95.2%

Question: And the viability, T/C (compound 0.316 µM)?
Answer: 82.5% and 88.7% and 91.7%

Question: What about the viability, T/C (compound 1 µM) of the same molecule?
Answer: 43.8% and 63.6% and 99.8%

Question: And the viability, T/C (compound 3.16 µM)?
Answer: 6.98% and 7.87% and 29.6%

Question: And the viability, T/C (compound 10 µM)?
Answer: 0.4% and 0.19% and 0.21%

Question: What about the IC50 (curve of compound) of the same molecule?
Answer: 0.836 µM and 1.3 µM and 2.22 µM
